# ChEMBL document CHEMBL1201862, “PubChem BioAssay data set” (2004)
# The source made the active and inactive calls.
# Experiments:
# [1] = target: Photoreceptor-specific nuclear receptor (Homo sapiens, UniProt Q9Y5X4); format: functional, cell-based;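 further: CHO-S cells with Gal4-NCOR and VP16-NR2E3 two-hybrid luciferase reporter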
# [2] = target: T1, Heat shock factor protein 1 (Mus musculus, UniProt P38532); assay: enhancement of HSF1-driven luciferase signal – cell-based, NIH3T3, luminescence, dose retest, confirmation (AID 435004); format: functional;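 further: stress induced by proteasome inhibitor MG132 added 30 min after compound; luciferase reporter driven by HSF1 response element in NIH3T3 cells; actives raise luminescence as potentiators of the MG132 stress response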
# T1 sequence (P38532 whole entry): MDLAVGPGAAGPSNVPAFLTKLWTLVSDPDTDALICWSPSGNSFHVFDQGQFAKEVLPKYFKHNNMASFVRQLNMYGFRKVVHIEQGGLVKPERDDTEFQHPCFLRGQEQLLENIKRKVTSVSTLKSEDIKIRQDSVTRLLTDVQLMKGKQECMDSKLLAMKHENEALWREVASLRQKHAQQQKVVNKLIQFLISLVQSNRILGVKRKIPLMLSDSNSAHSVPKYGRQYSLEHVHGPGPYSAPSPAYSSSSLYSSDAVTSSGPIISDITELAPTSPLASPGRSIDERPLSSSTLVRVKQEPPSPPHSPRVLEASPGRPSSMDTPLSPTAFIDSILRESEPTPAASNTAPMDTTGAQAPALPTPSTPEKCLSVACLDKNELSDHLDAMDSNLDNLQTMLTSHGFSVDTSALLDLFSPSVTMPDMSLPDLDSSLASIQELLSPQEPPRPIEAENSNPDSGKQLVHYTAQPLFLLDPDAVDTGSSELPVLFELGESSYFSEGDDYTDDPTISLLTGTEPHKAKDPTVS
# [3] = target: T2, Methionyl-tRNA synthetase, putative (Trypanosoma brucei brucei, UniProt Q38C91); format: functional, Trypanosoma brucei brucei strain 927/4 GUTat10.1
# T2 sequence (Q38C91 whole entry): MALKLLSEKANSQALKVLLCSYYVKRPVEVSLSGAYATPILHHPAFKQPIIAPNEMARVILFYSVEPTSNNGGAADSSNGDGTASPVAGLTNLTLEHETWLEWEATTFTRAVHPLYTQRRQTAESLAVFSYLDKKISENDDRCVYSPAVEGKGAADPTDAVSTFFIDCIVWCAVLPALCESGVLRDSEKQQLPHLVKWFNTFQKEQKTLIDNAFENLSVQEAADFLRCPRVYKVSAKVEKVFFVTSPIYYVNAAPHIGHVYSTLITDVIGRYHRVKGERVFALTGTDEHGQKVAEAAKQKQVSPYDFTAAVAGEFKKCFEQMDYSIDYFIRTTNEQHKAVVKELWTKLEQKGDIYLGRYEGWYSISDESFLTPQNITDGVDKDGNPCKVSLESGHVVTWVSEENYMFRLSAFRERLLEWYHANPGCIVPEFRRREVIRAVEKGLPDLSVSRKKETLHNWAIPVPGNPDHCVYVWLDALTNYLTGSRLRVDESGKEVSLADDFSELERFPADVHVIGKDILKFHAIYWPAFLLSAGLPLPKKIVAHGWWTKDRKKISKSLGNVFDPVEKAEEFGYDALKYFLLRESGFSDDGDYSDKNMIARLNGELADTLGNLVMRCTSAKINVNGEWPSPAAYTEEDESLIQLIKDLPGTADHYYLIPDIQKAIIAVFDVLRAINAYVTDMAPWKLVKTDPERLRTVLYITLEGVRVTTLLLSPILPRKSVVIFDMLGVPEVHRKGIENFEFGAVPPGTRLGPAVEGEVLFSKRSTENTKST
# [4] = target: T2, Methionyl-tRNA synthetase, putative; format: functional, Trypanosoma brucei brucei strain 927/4 GUTat10.1; remark: listed apart in the source
# [5] = Counterscreen for inhibitors of Trypanosoma brucei methionyl tRNA synthetase (MetRS): Luminescence-based cell-based high throughput dose response assay to identify compounds that are cytotoxic to Jurkat human T lymphocyte cells.; format: functional
# [6] = target: T3, Rac GTPase-activating protein 1 (Homo sapiens, UniProt Q9H0H5); assay: blockers of MgcRacGAP-driven Rac1 GTP hydrolysis – biochemical, ADP Hunter fluorescence, primary and confirmatory, confirmation (AID 624330); format: functional
# T3 sequence (Q9H0H5 whole entry): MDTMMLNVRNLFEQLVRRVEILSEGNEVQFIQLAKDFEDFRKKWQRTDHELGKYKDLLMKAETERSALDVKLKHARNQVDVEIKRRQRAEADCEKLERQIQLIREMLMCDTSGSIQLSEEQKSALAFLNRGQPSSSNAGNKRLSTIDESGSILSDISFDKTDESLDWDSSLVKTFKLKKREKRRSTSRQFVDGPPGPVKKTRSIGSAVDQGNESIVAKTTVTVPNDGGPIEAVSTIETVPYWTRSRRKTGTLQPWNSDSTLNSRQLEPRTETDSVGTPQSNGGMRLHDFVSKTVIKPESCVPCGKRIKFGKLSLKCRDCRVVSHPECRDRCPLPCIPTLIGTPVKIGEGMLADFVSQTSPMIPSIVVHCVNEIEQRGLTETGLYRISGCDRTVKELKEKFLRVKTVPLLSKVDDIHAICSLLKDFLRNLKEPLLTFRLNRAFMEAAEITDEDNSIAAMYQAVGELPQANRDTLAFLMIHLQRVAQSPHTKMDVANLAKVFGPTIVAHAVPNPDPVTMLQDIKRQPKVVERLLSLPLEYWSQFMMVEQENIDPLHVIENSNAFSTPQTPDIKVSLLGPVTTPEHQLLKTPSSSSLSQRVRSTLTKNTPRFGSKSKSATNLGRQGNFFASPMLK
# [7] = luciferase reporter signal suppression in cells – H4 neuroglioma cells, luminescence, dose response (AID 1990); format: functional, cell-based
# [8] = Luminescence Cell-Based Dose Response HTS to Identify Inhibitors of 5'UTR Stem-Loop Driven Prion Protein mRNA Translation in H4 Neuroglioblastoma Cells. [Related pubchem assays: 1827 (Project Summary), 1813 (Primary HTS)]; format: functional
# [9] = alpha-synuclein stem-loop luciferase translation blockers – H4 neuroglioma cells, luminescence, confirmation (AID 1988); format: functional, cell-based
# [10] = viability loss in HeLa cells – cytotoxicity control for MgcRacGAP inhibitor project, dose response (AID 624300); format: functional
# [11] = off-target signal loss in HeLa-CEM21 co-culture – HeLa F-luc CTL cells, cherry-picked, counter-screen for HIV-1 Env fusion inhibitor project, dose response (AID 652040); format: functional, cell-based;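 further: potency for signal decrease marking cytotoxic or nonspecific inhibition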
# [12] = HIV-1 AD8 envelope cell-cell fusion blockers – cherry-pick, dose response (AID 652062); format: functional, cell-based;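 further: luciferase signal from cell-cell fusion driven by HIV-1 clade B AD8 Env; potency is for inhibitors of fusion seen as a drop in luminescence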
# [13] = blockers of HIV-1 ZM109 envelope-driven cell-cell fusion – HeLa effector, CEM target cells, luciferase, cherry-pick, dose response (AID 652058); format: functional, cell-based;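 further: luciferase signal from HIV-1 Env mediated cell-cell fusion of effector and target cells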
# [14] = viability loss in CEM21 cells – cell-based, CellTiter-Glo luminescence, cherry-picked, cytotoxicity control for viral fusion inhibitor project, dose response (AID 652042); format: functional;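 further: potency for signal decrease meaning cytotoxicity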
# [15] = blockers of HIV-1 envelope-mediated cell-cell fusion – cherry-pick, dose response (AID 652057); format: functional, cell-based
# [16] = tested on: Streptococcus; assay: GAS UMAA2166 growth inhibition – luminescence, BacTiterGlo, counter-screen for streptokinase expression inhibitor project, dose response (AID 1915); format: functional, organism-based;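 further: potency for reduction of bacterial viability or growth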
# [17] = target: T4, Streptokinase A (Streptococcus pyogenes serotype M1, UniProt P10520); assay: viability-normalized secreted streptokinase activity reduction – plasminogen activation absorbance, OD405, dose response (AID 1914); format: functional, Streptococcus pyogenes M1 GAS;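 further: secreted streptokinase activity via plasminogen activation per viability signal from cell pellet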
# T4 sequence (P10520 whole entry): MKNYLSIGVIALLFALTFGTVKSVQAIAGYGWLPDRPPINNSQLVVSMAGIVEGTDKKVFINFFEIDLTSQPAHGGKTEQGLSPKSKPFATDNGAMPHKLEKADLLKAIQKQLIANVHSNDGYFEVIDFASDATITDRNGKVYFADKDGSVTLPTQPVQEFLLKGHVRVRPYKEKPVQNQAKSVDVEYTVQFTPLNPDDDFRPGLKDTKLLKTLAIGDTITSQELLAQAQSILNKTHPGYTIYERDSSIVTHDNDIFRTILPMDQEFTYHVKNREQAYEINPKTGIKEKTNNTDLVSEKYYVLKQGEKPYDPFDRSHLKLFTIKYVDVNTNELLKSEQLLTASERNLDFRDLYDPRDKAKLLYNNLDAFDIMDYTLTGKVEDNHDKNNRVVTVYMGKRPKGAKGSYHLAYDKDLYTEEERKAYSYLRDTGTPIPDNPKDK
# [18] = tested on: Streptococcus sp. 'group A'; assay: Streptococcus pyogenes SK(-)GAS viability under kanamycin – luminescence, BacTiterGlo, confirmation, counter-screen for streptokinase expression inhibitor project, dose response (AID 1900); format: functional, organism-based
# [19] = blockers of bursicon-stimulated LGR2 cAMP reporter – cell-based, HEK293, CRE-luciferase reporter, cherry pick, set 2, dose response (AID 743343); format: functional;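 further: transfected cells were stimulated with diluted bursicon conditioned medium after compound addition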
# [20] = blockade of melanocortin 4 receptor signaling – cell-based, plate reader, cherry pick, counter-screen for LGR2 antagonist project, dose response (AID 743444); format: functional;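 further: transfected HEK 293 cells stimulated with alpha-MSH peptide; potency of inhibitors of the alpha-MSH evoked signal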
# [21] = Trypanosoma cruzi growth suppression in host cells – NIH3T3 host cells, beta-gal luminescence, confirmation (AID 2044); format: functional, cell-based;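 further: intracellular parasites grown in NIH/3T3 mouse fibroblasts as host cells; luminescent beta-galactosidase reporter signal from transgenic T. cruzi replicating inside host cells; inhibitors lower the luminescence signal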
# [22] = target: T5, DNA repair protein RAD52 homolog (Homo sapiens, UniProt P43351); format: functional, biochemical
# T5 sequence (P43351 whole entry): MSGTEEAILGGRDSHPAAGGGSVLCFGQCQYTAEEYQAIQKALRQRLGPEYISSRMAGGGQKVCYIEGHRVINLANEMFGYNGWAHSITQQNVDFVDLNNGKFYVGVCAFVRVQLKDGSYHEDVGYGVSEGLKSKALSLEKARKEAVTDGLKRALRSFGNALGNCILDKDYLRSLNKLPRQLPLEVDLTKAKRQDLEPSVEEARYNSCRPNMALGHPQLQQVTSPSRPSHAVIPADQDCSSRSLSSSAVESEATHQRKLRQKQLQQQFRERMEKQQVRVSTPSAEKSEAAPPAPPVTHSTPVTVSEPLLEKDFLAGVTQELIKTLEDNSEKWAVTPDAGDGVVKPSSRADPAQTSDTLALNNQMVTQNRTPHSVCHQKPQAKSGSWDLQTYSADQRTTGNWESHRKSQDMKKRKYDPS
# [23] = NIH3T3 cell viability loss – ATP luminescence, mouse fibroblasts, counter-screen, dose response (AID 2010); format: functional, cell-based;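 further: cells exposed to compound for about 90 hours before reading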
# [24] = reduced cellular PGC1a acetyl-lysine signal – cell-based, cherry-picked samples, dose response (AID 720514); format: functional;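 further: potency may reflect raised or lowered acetylation signal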
# [25] = target: FAD-linked sulfhydryl oxidase ALR (Homo sapiens, UniProt P55789); assay: ALR-catalysed DTT oxidation blockers – biochemical, H2O2 detection, luminescence, cherry-pick, dose response (AID 493248)
# Sequence of FAD-linked sulfhydryl oxidase ALR (P55789 whole entry): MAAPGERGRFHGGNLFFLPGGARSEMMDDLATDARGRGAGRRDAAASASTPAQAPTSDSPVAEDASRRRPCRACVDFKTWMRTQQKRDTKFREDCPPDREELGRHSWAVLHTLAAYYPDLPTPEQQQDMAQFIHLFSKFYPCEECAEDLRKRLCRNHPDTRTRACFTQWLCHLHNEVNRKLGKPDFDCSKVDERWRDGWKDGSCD
# Sequence of Photoreceptor-specific nuclear receptor (Q9Y5X4 whole entry, the tested form may be a part): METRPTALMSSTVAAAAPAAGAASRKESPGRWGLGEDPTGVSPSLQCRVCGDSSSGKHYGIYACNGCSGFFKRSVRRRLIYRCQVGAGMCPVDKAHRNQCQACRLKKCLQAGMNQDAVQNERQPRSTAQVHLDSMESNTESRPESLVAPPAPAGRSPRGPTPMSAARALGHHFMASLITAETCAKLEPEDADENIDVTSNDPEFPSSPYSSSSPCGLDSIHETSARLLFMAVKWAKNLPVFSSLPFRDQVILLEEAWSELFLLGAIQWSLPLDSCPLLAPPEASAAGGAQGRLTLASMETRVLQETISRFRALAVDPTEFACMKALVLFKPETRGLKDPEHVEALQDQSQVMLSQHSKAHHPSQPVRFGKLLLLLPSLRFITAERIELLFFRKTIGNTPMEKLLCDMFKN
compound,measurement,setting,value
N#C/C(=C\c1ccc(Sc2nc3ccccc3[nH]2)o1)c1ccccc1,IC50,[1],4.69 µM (active)
same,EC50,[2],23.6 µM (active)
CCOc1ccc(CONS(=O)(=O)c2ccc(NC(C)=O)cc2)cc1Cl,IC50,[3],17.7 µM (inactive)
same,IC50,[4],11.1 µM (inactive)
same,IC50,[5],83.3 µM (inactive)
CCOC(=O)c1sc2nc(CSc3ccccc3)nc(N3CCCN(C)CC3)c2c1C,IC50,[6],149 µM (active)
same,EC50,[7],16.9 µM (active)
same,EC50,[8],> 120 µM (not active)
same,EC50,[9],8.64 µM (active)
same,CC50,[10],53.8 µM (active)
CN1CC(c2ccccc2Cl)C2(COc3ccccc3C2=O)C12C(=O)Nc1ccccc12 (centres undefined),AC50,[11],6.24 µM (active)
same,AC50,[12],10.6 µM (active)
same,AC50,[13],3 µM (active)
same,AC50,[14],65.3 µM (active)
same,AC50,[15],4.21 µM (active)
Cc1c(C(=O)Nc2ccc(Oc3ccccc3)cc2)sc2nc3n(c(=O)c12)CCC3,EC50,[16],> 150 µM (not active)
same,EC50,[17],39 µM (active)
same,EC50,[18],6.66 µM (active)
same,IC50,[1],2.78 µM (active)
Cc1ccc(NC(=O)CN(C)C(=O)c2cc(S(=O)(=O)N(C)C)ccc2N2CCCC2)cc1,IC50,[3],10.4 µM (inactive)
same,IC50,[4],4.27 µM (active)
same,IC50,[5],83.3 µM (inactive)
Cc1ccc(NC(=O)c2cnn(-c3ccccc3)c2C)cc1C,AC50,[19],7.23 µM (active)
same,AC50,[20],4.12 µM (active)
COc1ccc(C2c3ccc4ccccc4c3Oc3ncn(CCN(C)C)c(=N)c32)cc1 (centres undefined),EC50,[21],1.34 µM (active)
same,AC50,[22],19.9 µM (active)
same,EC50,[23],22.1 µM (active)
Cc1sc2nc(CN3CCCCC3)nc(Nc3ccc4c(c3)OCCO4)c2c1C,AC50,[22],22.2 µM (active)
CCn1c(SCC(=O)c2c[nH]c3ccccc23)nc2cc(S(=O)(=O)N3CCOCC3)ccc21,IC50,[3],12.2 µM (inactive)
same,IC50,[4],2.58 µM (active)
same,IC50,[5],83.3 µM (inactive)
CC1=C(Cl)C2=NS(=O)(=O)CCN2C=C1Cl,AC50,[24],3.55 µM (active)
O=C1CCCc2c1[nH]c1ccc(Cl)cc21,AC50,[11],< 0.26 µM (active)
same,AC50,[12],6.38 µM (active)
same,AC50,[13],15 µM (active)
same,EC50,[9],9.1 µM (active)
same,AC50,[15],3.39 µM (active)
C[C@H]1CN([C@@H](C)CO)C(=O)Cc2cc(NC(=O)Nc3ccc4c(c3)OCO4)ccc2O[C@H]1CN(C)S(=O)(=O)c1ccccc1,AC50,[12],7.28 µM (active)
same,AC50,[13],0.739 µM (active)
same,AC50,[14],37.3 µM (active)
same,AC50,[15],0.991 µM (active)
C[C@H]1CN([C@@H](C)CO)C(=O)Cc2cc(NC(=O)Nc3ccc4c(c3)OCO4)ccc2O[C@H]1CN(C)S(=O)(=O)c1cccs1,AC50,[12],22.3 µM (active)
same,AC50,[14],49.9 µM (active)
same,AC50,[15],1.93 µM (active)
CC(=O)Nc1cccc(Oc2nc(NCCN(C)C)nc3ccsc23)c1,AC50,[22],11.1 µM (active)
N#Cc1cccc(-c2ccc([C@@H]3[C@@H]4CN(S(=O)(=O)c5ccc(-c6ccccc6)cc5)C[C@H]3N4)cc2)c1,AC50,[24],1.82 µM (active)
C/C(=N\Nc1nc2ccccc2[nH]1)c1ccc2c(c1)OCO2,EC50,[16],> 150 µM (not active)
same,IC50,[3],28.2 µM (inactive)
same,EC50,[17],> 150 µM (not active)
same,EC50,[18],13.3 µM (active)
same,EC50,[21],1.37 µM (active)
same,IC50,[4],119 µM (inactive)
same,EC50,[23],> 60 µM (not active)
same,IC50,[5],48.4 µM (inactive)
same,AC50,[25],0.116 µM (active)
CC(C)(C)n1nc(Cc2cccc3ccccc23)c2c(N)ncnc21,AC50,[11],31.1 µM (active)
same,AC50,[12],34.5 µM (active)
same,AC50,[14],46.8 µM (active)
same,AC50,[15],7.07 µM (active)
